From ChEMBL document CHEMBL5634163, “Anti-Ferroptotic Effect of Cannabidiol in Human Skin Keratinocytes Characterized by Data-Independent Acquisition-Based Proteomics” (J Nat Prod, 2024)
Calls of active or inactive are those of the source. No cut-off for these calls is given here.

Assays:
HaCaT [1] = test: Anti-ferroptotic effect against erastin-induced cytotoxicity in human HaCaT cells assessed as cell viability at 10 uM preincubated for 4 hrs followed by erastin addition measured after 24 hrs by MTT assay (reference value: 23 %); assay type: functional; conditions: time 28 hrs, read-out: Activity
[2] = Antioxidant activity assessed as free radical scavenging activity at 100 uM incubated for 30 mins in dark by DPPH assay relative to control; assay type: functional
HaCaT [3] = test: Anti-ferroptotic effect against erastin-induced cytotoxicity in human HaCaT cells assessed as cell viability at 10 uM preincubated for 4 hrs followed by erastin addition measured after 24 hrs by MTT assay relative to control; assay type: functional; conditions: for Activity: time 28.0 hrs; for viability at 10 µM: time 28 hrs, read-out: Activity
[4] = Iron-chelating activity of compound at 500 uM incubated for 10 mins by absorbance based assay relative to control; assay type: functional
[5] = Antioxidant activity assessed as free radical scavenging activity incubated for 30 mins in dark by DPPH assay; assay type: functional
HaCaT [6] = test: Anti-ferroptotic effect against erastin-induced cytotoxicity in human HaCaT cells assessed as cell viability at 0.31 uM preincubated for 4 hrs followed by erastin addition measured after 24 hrs by MTT assay (reference value: 23 %); assay type: functional; conditions: time 28 hrs, read-out: Activity
HaCaT [7] = test: Anti-ferroptotic effect against erastin-induced cytotoxicity in human HaCaT cells assessed as cell viability at 5 uM preincubated for 4 hrs followed by erastin addition measured after 24 hrs by MTT assay (reference value: 23 %); assay type: functional; conditions: time 28 hrs, read-out: Activity
HaCaT [8] = test: Anti-ferroptotic effect against erastin-induced cytotoxicity in human HaCaT cells assessed as cell viability at 0.16 uM preincubated for 4 hrs followed by erastin addition measured after 24 hrs by MTT assay (reference value: 23 %); assay type: functional; conditions: time 28 hrs, read-out: Activity
HaCaT [9] = test: Reversal of erastin-induced DDX60 level in human HaCaT cells; assay type: functional, cell-based
HaCaT [10] = test: Reversal of erastin-induced LIG3 level in human HaCaT cells; assay type: functional, cell-based
HaCaT [11] = test: Reversal of erastin-induced ROS level in human HaCaT cells at 2.5 uM preincubated for 24.5 hrs followed by erastin addition measured after 4 hrs by DC-FDA probe based assay (reference value: 23 %); assay type: functional; conditions: time 28.5 hrs
HaCaT [12] = test: Reversal of erastin-induced iron level in human HaCaT cells at 10 uM preincubated for 24 hrs followed by erastin addition measured after 24 hrs by FerroOrange probe based assay (reference value: 43 %); assay type: functional; conditions: time 48 hrs
HaCaT [13] = test: Anti-ferroptotic effect against erastin-induced cytotoxicity in human HaCaT cells assessed as cell viability at 0.08 uM preincubated for 4 hrs followed by erastin addition measured after 24 hrs by MTT assay (reference value: 23 %); assay type: functional; conditions: time 28 hrs, read-out: Activity
HaCaT [14] = test: Anti-ferroptotic effect against erastin-induced cytotoxicity in human HaCaT cells assessed as cell viability at 2.5 uM preincubated for 4 hrs followed by erastin addition measured after 24 hrs by MTT assay (reference value: 23 %); assay type: functional; conditions: time 28 hrs, read-out: Activity
HaCaT [15] = test: Reversal of erastin-induced ROS level in human HaCaT cells at 10 uM preincubated for 24.5 hrs followed by erastin addition measured after 4 hrs by DC-FDA probe based assay (reference value: 23 %); assay type: functional; conditions: time 28.5 hrs
HaCaT [16] = test: Reversal of erastin-reduced RPL7A level in human HaCaT cells; assay type: functional, cell-based
HaCaT [17] = test: Effect on GSH level in human HaCaT cells at 2.5 uM; assay type: functional, cell-based
HaCaT [18] = test: Anti-ferroptotic effect against erastin-induced cytotoxicity in human HaCaT cells assessed as cell viability at 1.25 uM preincubated for 4 hrs followed by erastin addition measured after 24 hrs by MTT assay (reference value: 23 %); assay type: functional; conditions: time 28 hrs, read-out: Activity
HaCaT [19] = test: Reversal of erastin-reduced LGALS3 level in human HaCaT cells; assay type: functional, cell-based
HaCaT [20] = test: Suppression of erastin-induced intracellular Fe2+ level in human HaCaT cells at 0.6 uM preincubated for 24 hrs followed by erastin addition measured after 24 hrs by FerroOrange probe based assay (reference value: 25 %); assay type: functional; conditions: time 48 hrs
HaCaT [21] = test: Reversal of erastin-induced FXR2 level in human HaCaT cells; assay type: functional, cell-based
HaCaT [22] = test: Suppression of erastin-induced intracellular Fe2+ level in human HaCaT cells at 2.5 uM preincubated for 24 hrs followed by erastin addition measured after 24 hrs by FerroOrange probe based assay (reference value: 25 %); assay type: functional; conditions: time 48 hrs
HaCaT [23] = test: Reversal of erastin-induced lipid peroxidation in human HaCaT cells at 10 uM preincubated for 4 hrs followed by erastin addition measured after 24 hrs by flow cytometry (reference value: 47 %); assay type: functional; conditions: time 28 hrs
HaCaT [24] = test: Anti-ferroptotic effect against erastin-induced cytotoxicity in human HaCaT cells assessed as cell viability at 0.63 uM preincubated for 4 hrs followed by erastin addition measured after 24 hrs by MTT assay (reference value: 23 %); assay type: functional; conditions: time 28 hrs, read-out: Activity
HaCaT [25] = test: Reversal of erastin-induced lipid peroxidation in human HaCaT cells at 2.5 uM preincubated for 4 hrs followed by erastin addition measured after 24 hrs by flow cytometry (reference value: 47 %); assay type: functional; conditions: time 28 hrs
HaCaT [26] = test: Reversal of erastin-induced ROS level in human HaCaT cells at 0.6 uM preincubated for 24.5 hrs followed by erastin addition measured after 4 hrs by DC-FDA probe based assay (reference value: 23 %); assay type: functional; conditions: time 28.5 hrs
HaCaT [27] = test: Reversal of erastin-induced iron level in human HaCaT cells at 2.5 uM preincubated for 24 hrs followed by erastin addition measured after 24 hrs by FerroOrange probe based assay (reference value: 43 %); assay type: functional; conditions: time 48 hrs
HaCaT [28] = test: Reversal of erastin-induced lipid peroxidation in human HaCaT cells at 0.6 uM preincubated for 4 hrs followed by erastin addition measured after 24 hrs by flow cytometry (reference value: 47 %); assay type: functional; conditions: time 28 hrs
HaCaT [29] = test: Reversal of erastin-reduced CSNK2B level in human HaCaT cells; assay type: functional, cell-based
HaCaT [30] = test: Suppression of erastin-induced intracellular Fe2+ level in human HaCaT cells at 10 uM preincubated for 24 hrs followed by erastin addition measured after 24 hrs by FerroOrange probe based assay (reference value: 25 %); assay type: functional; conditions: time 48 hrs

CCOC(=O)c1ccc(NC2CCCCC2)c(N)c1
viability at 10 µM (HaCaT [1]): 66%

CC1=C(/C=C/C(C)=C/C=C/C(C)=C/CO)C(C)(C)CCC1
Activity [2]: 18% | Activity (HaCaT [3]): inactive | Activity [4]: 87%

O=C1O[C@H]([C@@H](O)CO)C(O)=C1O [ASCORBIC ACID]
IC50 [5]: 15.9 µM | Activity (HaCaT [3]): inactive | Activity [4]: < 5%

C=C(C)[C@@H]1CCC(C)=C[C@H]1c1c(O)cc(CCCCC)cc1O [CANNABIDIOL]
viability at 0.31 µM (HaCaT [6]): 45% | viability at 5 µM (HaCaT [7]): 71% | viability at 0.16 µM (HaCaT [8]): 36% | Activity (HaCaT [9]): Active | Activity (HaCaT [10]): Active | IC50 [5]: 33.3 µM | Activity (HaCaT [11]): 14% | Activity (HaCaT [12]): 17% | viability at 0.08 µM (HaCaT [13]): 29% | viability at 2.5 µM (HaCaT [14]): 74% | Activity (HaCaT [15]): 26% | Activity (HaCaT [16]): Active | viability at 10 µM (HaCaT [3]): 76% | Activity (HaCaT [17]): inactive | viability at 1.25 µM (HaCaT [18]): 67% | Activity (HaCaT [19]): Active | Activity (HaCaT [20]): 10% | Activity (HaCaT [21]): Active | Activity (HaCaT [22]): 12% | Activity (HaCaT [23]): 40% | viability at 0.63 µM (HaCaT [24]): 52% | Activity (HaCaT [25]): 44% | Activity (HaCaT [26]): 10% | Activity (HaCaT [27]): 15% | Activity (HaCaT [28]): 39% | viability at 10 µM (HaCaT [1]): 68% | Activity (HaCaT [29]): Active | Activity [4]: < 5%

O=c1c(O)c(-c2ccc(O)c(O)c2)oc2cc(O)ccc12 [FISETIN]
IC50 [5]: 10.1 µM | Activity (HaCaT [12]): 14% | Activity (HaCaT [15]): 11% | viability at 10 µM (HaCaT [3]): 37% | Activity (HaCaT [23]): 40% | Activity [4]: 60% | Activity (HaCaT [30]): 32%
